Laboratory results taken from patent publication US20070292908A1, “Method for Detecting Streptococcus Agalactiae Using Alpha-Glucosidase Activity” (BIOMERIEUX, priority 2004, published 2007).

How the values were obtained:
Streptococcus agalactiae [1] = assay: Number of strains detected as a function of the concentration of α-glucosidase substrate; format: cell-based; conditions: positive when I≧0.6, 8 strains
Source text: The above protocol was repeated, with the exception that the concentration of enzymatic substrate was varied.
Table 2 below gives the number of strains detected (considered to be positive when I≧0.6) as a function of the concentration of substrate.

Streptococcus agalactiae [2] = assay: Detection of Streptococcus agalactiae strains on reaction media containing an α-glucosidase enzymatic substrate; format: cell-based; conditions: substrate 0.1 g/l; for intensity (I) of coloration: arbitrary scale 0 to 4
Description: The reaction media were prepared by mixing heart-brain extract (4.84 g/l; Solabia), meat infusion (1.96 g/l; Solabia), biothione (1 g/l; Solabia), biotrypcase (7.2 g/l; Solabia), sodium carbonate (0.3 g/l; VWR), sodium pyruvate (2 g/l; Fluka), HEPES buffer (0.4 g/l; Sigma), lactalbumin peptone (2 g/l; DMV), glucose (1 g/l; Merck), American agar (2 g/l; Sobigel) and European agar (12 g/l; Roko).
The media were then poured into a Petri dish for subsequent inoculation with bacterial strains.
Eight Streptococcus agalactiae strains derived from the applicant's collection, suspended in physiological saline, were inoculated so as to give isolated colonies on each of the media. The dishes were then incubated at 37° C. for 48 hours. The colonies formed are examined visually after 18, 24 and more than 40 hours of incubation. The coloration of these colonies, the growth and also the intensity of this coloration were noted.
The results are given in table 1 below and are expressed: • in terms of growth (G) with the size being indicated in mm, • in terms of intensity (1) of coloration based on an arbitrary scale ranging from 0 to 4, 0 corresponding to an absence of activity and 4 corresponding to the presence of a very intense coloration, • in terms of color (Co) with T=turquoise, R=pink or red, Gr=green, Mg=magenta, • according to the incubation time in hours (T).

OC[C@H]1O[C@H](Oc2c[nH]c3cc(Cl)ccc23)[C@H](O)[C@@H](O)[C@@H]1O [Rose-alpha-Glu, 6-chloro-3-indolyl-α-D-glucopyranoside]
number of strains detected (Streptococcus agalactiae [1]; substrate 100 mg/l, incubation 24 h): 1/8 | number of strains detected (Streptococcus agalactiae [1]; substrate 100 mg/l, incubation 48 h): 7/8 | number of strains detected (Streptococcus agalactiae [1]; substrate 200 mg/l, incubation 24 h): 3/8 | number of strains detected (Streptococcus agalactiae [1]; substrate 200 mg/l, incubation 48 h): 8/8 | number of strains detected (Streptococcus agalactiae [1]; substrate 300 mg/l, incubation 24 h): 6/8 | number of strains detected (Streptococcus agalactiae [1]; substrate 300 mg/l, incubation 48 h): 8/8 | intensity (I) of coloration (Streptococcus agalactiae [2]; strain 0008200, 18 h): 0.1 | growth (G), size (Streptococcus agalactiae [2]; strain 0008200, 18 h incubation): 0.5 mm | intensity (I) of coloration (Streptococcus agalactiae [2]; strain 0008200, 24 h): 0.3 | growth (G), size (Streptococcus agalactiae [2]; strain 0008200, 24 h incubation): 0.5 mm | intensity (I) of coloration (Streptococcus agalactiae [2]; strain 0008200, >40 h): 0.5 | growth (G), size (Streptococcus agalactiae [2]; strain 0008200, >40 h incubation): 0.5 mm | intensity (I) of coloration (Streptococcus agalactiae [2]; strain 0008206, 18 h): 0.1 | growth (G), size (Streptococcus agalactiae [2]; strain 0008206, 18 h incubation): 0.7 mm | intensity (I) of coloration (Streptococcus agalactiae [2]; strain 0008206, 24 h): 0.3 | growth (G), size (Streptococcus agalactiae [2]; strain 0008206, 24 h incubation): 0.8 mm | intensity (I) of coloration (Streptococcus agalactiae [2]; strain 0008206, >40 h): 0.8 | growth (G), size (Streptococcus agalactiae [2]; strain 0008206, >40 h incubation): 1.2 mm | intensity (I) of coloration (Streptococcus agalactiae [2]; strain 0101060, 18 h): 0.3 | growth (G), size (Streptococcus agalactiae [2]; strain 0101060, 18 h incubation): 0.5 mm | intensity (I) of coloration (Streptococcus agalactiae [2]; strain 0101060, 24 h): 0.6 | growth (G), size (Streptococcus agalactiae [2]; strain 0101060, 24 h incubation): 0.7 mm | intensity (I) of coloration (Streptococcus agalactiae [2]; strain 0101060, >40 h): 2.3 | growth (G), size (Streptococcus agalactiae [2]; strain 0101060, >40 h incubation): 0.8 mm | intensity (I) of coloration (Streptococcus agalactiae [2]; strain 7611003, 18 h): 0.3 | growth (G), size (Streptococcus agalactiae [2]; strain 7611003, 18 h incubation): 1 mm | intensity (I) of coloration (Streptococcus agalactiae [2]; strain 7611003, 24 h): 0.6 | growth (G), size (Streptococcus agalactiae [2]; strain 7611003, 24 h incubation): 1.3 mm | intensity (I) of coloration (Streptococcus agalactiae [2]; strain 7611003, >40 h): 1.3 | growth (G), size (Streptococcus agalactiae [2]; strain 7611003, >40 h incubation): 1.7 mm | growth (G), size (Streptococcus agalactiae [2]; strain 7701031, 18 h incubation): 0.5 mm | growth (G), size (Streptococcus agalactiae [2]; strain 7701031, 24 h incubation): 0.7 mm | intensity (I) of coloration (Streptococcus agalactiae [2]; strain 7701031, >40 h): 0.5 | growth (G), size (Streptococcus agalactiae [2]; strain 7701031, >40 h incubation): 1.2 mm | intensity (I) of coloration (Streptococcus agalactiae [2]; strain 7702055, 18 h): 0.1 | growth (G), size (Streptococcus agalactiae [2]; strain 7702055, 18 h incubation): 0.7 mm | intensity (I) of coloration (Streptococcus agalactiae [2]; strain 7702055, 24 h): 0.1 | growth (G), size (Streptococcus agalactiae [2]; strain 7702055, 24 h incubation): 1 mm | intensity (I) of coloration (Streptococcus agalactiae [2]; strain 7702055, >40 h): 1 | growth (G), size (Streptococcus agalactiae [2]; strain 7702055, >40 h incubation): 1.7 mm | growth (G), size (Streptococcus agalactiae [2]; strain 8709013, 18 h incubation): 0.4 mm | growth (G), size (Streptococcus agalactiae [2]; strain 8709013, 24 h incubation): 0.5 mm | intensity (I) of coloration (Streptococcus agalactiae [2]; strain 8709013, >40 h): 0.5 | growth (G), size (Streptococcus agalactiae [2]; strain 8709013, >40 h incubation): 0.7 mm | intensity (I) of coloration (Streptococcus agalactiae [2]; strain 8904053, 18 h): 0.1 | growth (G), size (Streptococcus agalactiae [2]; strain 8904053, 18 h incubation): 0.7 mm | intensity (I) of coloration (Streptococcus agalactiae [2]; strain 8904053, 24 h): 0.3 | growth (G), size (Streptococcus agalactiae [2]; strain 8904053, 24 h incubation): 0.7 mm | intensity (I) of coloration (Streptococcus agalactiae [2]; strain 8904053, >40 h): 1 | growth (G), size (Streptococcus agalactiae [2]; strain 8904053, >40 h incubation): 0.8 mm
